Format in all cases: functional
Experiment [1] relates to Candida albicans. The experiment is described as follows: Anti-fungal activity against fluconazole-resistant Candida albicans isolate 100 by microbroth dilution method. On the technique in general: In broth dilution the organism is exposed to a series of concentrations in liquid medium.
For experiment [2], the system named is Candida albicans. The experiment can be described thus: Anti-fungal activity against fluconazole-resistant Candida albicans isolate 103 by microbroth dilution method.
The test system of experiment [3] is Candida albicans. The experiment is described as follows: Synergistic anti-fungal activity against fluconazole-resistant Candida albicans isolate 100 in presence of fluconazole by two-fold dilution method.
For experiment [4], the system named is Candida albicans. The experiment is described as follows: Synergistic anti-fungal activity against fluconazole-resistant Candida albicans isolate 103 in presence of fluconazole by two-fold dilution method.
Experiment [5] concerns Candida albicans. The experiment is described as follows: Potentiation of fluconazole-induced anti-fungal activity against fluconazole-resistant Candida albicans isolate 103 by two-fold dilution method.
Experiment [6] deals with Candida albicans. The experiment can be described thus: Potentiation of fluconazole-induced anti-fungal activity against fluconazole-resistant Candida albicans isolate 100 by two-fold dilution method.

Structures are written as SMILES. ≈ marks a conversion by molar mass, not a printed value.

As a reminder, the MIC80 is the lowest concentration that inhibits either 80% of growth or 80% of the strains tested, depending on the study. On to `OC(Cn1cncn1)(Cn1cncn1)c1ccc(F)cc1F` [FLUCONAZOLE], for which the MIC80 in experiment [1] and in experiment [2] was 128 µg/mL (≈ 418 µM) in each case.

In the case of `Cc1cccc(-c2ccc(CNC(=O)CCc3ccc4c(c3)OCO4)cc2)c1`, the MIC80 is > 64 µg/mL in experiment [1], > 64 µg/mL in experiment [2], 0.5 µg/mL in experiment [3] and 1 µg/mL in experiment [4]. Besides, the entries for the “fractional inhibitory concentration index (FICI)” value in experiment [5] and in experiment [6] were 0.07 and 0.066, respectively.

For `O=C(CCc1ccc2c(c1)OCO2)NCc1cccc(-c2ccc(F)cc2)c1`, the MIC80 is > 64 µg/mL in experiment [1], > 64 µg/mL in experiment [2], 0.5 µg/mL in experiment [3] and 1 µg/mL in experiment [4]. For the same compound, the “fractional inhibitory concentration index (FICI)” value in experiment [5] is 0.07; in experiment [6] it was 0.066.

For the compound `O=C(CCc1ccc2c(c1)OCO2)NCc1ccccc1F`, the MIC80 in experiment [1] was > 64 µg/mL; in experiment [2], > 64 µg/mL; in experiment [3], 0.5 µg/mL; in experiment [4], 0.5 µg/mL. Further, the “fractional inhibitory concentration index (FICI)” value in experiment [5] and in experiment [6] was 0.066 in each case.

`Cc1ccc(-c2ccccc2CNC(=O)CCc2ccc3c(c2)OCO3)cc1`: the MIC80 in experiment [1] is > 64 µg/mL; in experiment [2], > 64 µg/mL; in experiment [3], 0.25 µg/mL; in experiment [4], 0.25 µg/mL. Also, the “fractional inhibitory concentration index (FICI)” value in experiment [5] and in experiment [6] was 0.064 in each case.

Take `O=C(CCc1ccc2c(c1)OCO2)NCc1ccc(-c2ccsc2)cc1`: the MIC80 in experiment [1] is > 64 µg/mL; in experiment [2], > 64 µg/mL; in experiment [3], 0.25 µg/mL; in experiment [4], 0.25 µg/mL. The “fractional inhibitory concentration index (FICI)” value in experiment [5] and in experiment [6] was 0.064 in each case.

As for `O=C(CCc1ccc2c(c1)OCO2)NCc1ccc(-c2ccc(F)cc2F)cc1`, the MIC80 is > 64 µg/mL in experiment [1], > 64 µg/mL in experiment [2], 0.063 µg/mL in experiment [3] and 0.125 µg/mL in experiment [4]. For the same compound, the “fractional inhibitory concentration index (FICI)” value in experiment [5] and in experiment [6] was 0.063 each time.

`O=C(CCc1ccc2c(c1)OCO2)NCc1ccc(-c2cccc(F)c2)cc1`: the MIC80 was > 64 µg/mL in experiment [1], > 64 µg/mL in experiment [2], 0.25 µg/mL in experiment [3] and 0.25 µg/mL in experiment [4]. Further, the “fractional inhibitory concentration index (FICI)” value in experiment [5] and in experiment [6] was 0.064 each time.

In the case of `COc1ccc(-c2ccc(CNC(=O)CCc3ccc4c(c3)OCO4)cc2)cc1`, the MIC80 in experiment [1] is > 64 µg/mL; in experiment [2], > 64 µg/mL; in experiment [3], 0.25 µg/mL; in experiment [4], 0.5 µg/mL. For the same compound, the “fractional inhibitory concentration index (FICI)” value in experiment [5] was found to be 0.066; in experiment [6], 0.064.

As for `O=C(CCc1ccc2c(c1)OCO2)NCc1ccc(-c2ccco2)cc1`, the MIC80 in experiment [1] was > 64 µg/mL; in experiment [2] it was > 64 µg/mL; in experiment [3], 2 µg/mL; in experiment [4] it was 4 µg/mL. The “fractional inhibitory concentration index (FICI)” value in experiment [5] was found to be 0.094; in experiment [6], 0.078.

On to `O=C(CCc1ccc2c(c1)OCO2)NCc1ccc(Br)cc1`, for which the MIC80 in experiment [1] is > 64 µg/mL; in experiment [2], > 64 µg/mL; in experiment [3], 0.5 µg/mL; in experiment [4], 1 µg/mL. The “fractional inhibitory concentration index (FICI)” value in experiment [5] is listed as 0.07; in experiment [6] it was 0.066.

Regarding `O=C(CCc1ccc2c(c1)OCO2)NCc1ccccc1Br`, the MIC80 in experiment [1] was > 64 µg/mL; in experiment [2], > 64 µg/mL; in experiment [3], 1 µg/mL; in experiment [4], 1 µg/mL. For the same compound, the “fractional inhibitory concentration index (FICI)” value in experiment [5] and in experiment [6] was 0.07 throughout.

As to `O=C(CCc1ccc2c(c1)OCO2)NCc1cccc(Br)c1`, the MIC80 in experiment [1] is > 64 µg/mL; in experiment [2], > 64 µg/mL; in experiment [3], 2 µg/mL; in experiment [4], 2 µg/mL. In addition, the “fractional inhibitory concentration index (FICI)” value in experiment [5] and in experiment [6] was 0.078 in each case.

Take `Cc1ccccc1CNC(=O)CCc1ccc2c(c1)OCO2`: the MIC80 is > 64 µg/mL in experiment [1], > 64 µg/mL in experiment [2], 0.25 µg/mL in experiment [3] and 0.5 µg/mL in experiment [4]. Besides, the results for the “fractional inhibitory concentration index (FICI)” value in experiment [5] and in experiment [6] were 0.066 and 0.064, respectively.

As to `O=C(Cc1ccccc1F)NCCc1ccc2c(c1)OCO2`, the MIC80 in experiment [1] is > 64 µg/mL; in experiment [2], > 64 µg/mL; in experiment [3], 1 µg/mL; in experiment [4] it was 1 µg/mL. Besides, the “fractional inhibitory concentration index (FICI)” value in experiment [5] and in experiment [6] was 0.07 throughout.

`O=C(CCc1ccc2c(c1)OCO2)NCc1ccc(-c2ccc(C(F)(F)F)cc2)cc1`: the MIC80 was > 64 µg/mL in experiment [1], > 64 µg/mL in experiment [2], 4 µg/mL in experiment [3] and 4 µg/mL in experiment [4]. Also, the “fractional inhibitory concentration index (FICI)” value in experiment [5] and in experiment [6] was 0.094 in each case.

As for `O=C(CCc1ccc2c(c1)OCO2)NCc1ccc(-c2ccc(Cl)cc2)cc1`, the MIC80 in experiment [1] was > 64 µg/mL; in experiment [2] it was > 64 µg/mL; in experiment [3], 0.5 µg/mL; in experiment [4] it was 0.5 µg/mL. The “fractional inhibitory concentration index (FICI)” value in experiment [5] and in experiment [6] was 0.066 throughout.

Turning to `N#Cc1ccc(-c2ccc(CNC(=O)CCc3ccc4c(c3)OCO4)cc2)cc1`, the MIC80 is > 64 µg/mL in experiment [1], > 64 µg/mL in experiment [2], 8 µg/mL in experiment [3] and 8 µg/mL in experiment [4]. Also, the “fractional inhibitory concentration index (FICI)” value in experiment [5] and in experiment [6] was 0.125 in each case.

`O=C(CCc1ccc2c(c1)OCO2)NCc1ccc(-c2ccncc2)cc1`: the MIC80 in experiment [1] is > 64 µg/mL; in experiment [2], > 64 µg/mL; in experiment [3] it was 8 µg/mL; in experiment [4], 8 µg/mL. Moreover, the “fractional inhibitory concentration index (FICI)” value in experiment [5] and in experiment [6] was 0.125 in each case.

For `O=C(CCc1ccc2c(c1)OCO2)NCc1ccccc1-c1ccc(F)cc1`, the MIC80 in experiment [1] is > 64 µg/mL; in experiment [2] it was > 64 µg/mL; in experiment [3], 0.5 µg/mL; in experiment [4], 0.5 µg/mL. For the same compound, the “fractional inhibitory concentration index (FICI)” value in experiment [5] and in experiment [6] was 0.066 throughout.

With `O=C(CCc1ccc2c(c1)OCO2)NCc1cccc(F)c1`, the MIC80 in experiment [1] is > 64 µg/mL; in experiment [2], > 64 µg/mL; in experiment [3], 1 µg/mL; in experiment [4] it was 1 µg/mL. The “fractional inhibitory concentration index (FICI)” value in experiment [5] and in experiment [6] was 0.07 in each case.

Regarding `Cc1ccc(-c2cccc(CNC(=O)CCc3ccc4c(c3)OCO4)c2)cc1`, the MIC80 in experiment [1] is > 64 µg/mL; in experiment [2], > 64 µg/mL; in experiment [3], 1 µg/mL; in experiment [4], 2 µg/mL. Further, the “fractional inhibitory concentration index (FICI)” value is reported as 0.078 in experiment [5] and 0.07 in experiment [6].

For `O=C(CCc1ccc2c(c1)OCO2)NCc1ccc(-c2cccs2)cc1`, the MIC80 was > 64 µg/mL in experiment [1], > 64 µg/mL in experiment [2], 0.063 µg/mL in experiment [3] and 0.125 µg/mL in experiment [4]. Also, the “fractional inhibitory concentration index (FICI)” value in experiment [5] and in experiment [6] was 0.063 throughout.

These data come from ChEMBL document CHEMBL4043214, “Design, synthesis, and SAR study of 3-(benzo[d][1,3]dioxol-5-yl)-N-benzylpropanamide as novel potent synergists against fluconazole-resistant Candida albicans” (2017).
